Test results: PMC8402619 (Viruses, 2021)
Read-outs that look alike come from different tables or passages of the source.

What was measured:
[1] = Plasma protein binding by equilibrium dialysis, rabbit plasma; assay type: in vitro ADME; conditions: pH 7.4
MATE2K = biological target: T1, MATE2K (Homo sapiens, UniProt Q86VL8); test: Islatravir uptake as substrate, MDCKII vs MDCKII-MATE2K cells; assay type: in vitro ADME
T1 construct: expressed in transfected cells; host or cells: MDCKII

CYP2C9 = CYP2C9 (Homo sapiens, UniProt P11712); test: Time-dependent CYP inhibition in pooled human liver microsomes; assay type: in vitro ADME
OAT3 = biological target: T2, OAT3 (Homo sapiens, UniProt Q8TCC7); test: Islatravir uptake as substrate, MDCKII vs MDCKII-OAT3 cells; assay type: in vitro ADME
T2 construct: expressed in transfected cells; host or cells: MDCKII
T2 sequence (Q8TCC7 1-542): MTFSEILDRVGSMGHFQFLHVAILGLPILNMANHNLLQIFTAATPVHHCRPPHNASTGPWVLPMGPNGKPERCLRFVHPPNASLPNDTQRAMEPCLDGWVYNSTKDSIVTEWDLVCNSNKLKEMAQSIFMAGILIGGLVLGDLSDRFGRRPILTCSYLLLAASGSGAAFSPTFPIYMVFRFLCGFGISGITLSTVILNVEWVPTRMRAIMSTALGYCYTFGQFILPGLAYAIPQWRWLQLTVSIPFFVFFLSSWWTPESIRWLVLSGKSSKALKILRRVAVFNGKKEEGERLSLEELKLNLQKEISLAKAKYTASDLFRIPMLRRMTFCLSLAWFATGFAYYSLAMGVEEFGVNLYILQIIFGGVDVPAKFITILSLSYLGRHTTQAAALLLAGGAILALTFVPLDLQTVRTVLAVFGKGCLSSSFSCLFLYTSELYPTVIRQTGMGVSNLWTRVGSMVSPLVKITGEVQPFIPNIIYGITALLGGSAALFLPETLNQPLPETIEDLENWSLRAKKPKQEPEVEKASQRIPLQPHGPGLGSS

MATE1 = biological target: T3, MATE1 (Homo sapiens, UniProt Q96FL8); test: Inhibition of transporter-mediated probe uptake in CHO-K1-MATE1 cells; assay type: in vitro ADME
T3 construct: expressed in transfected cells; host or cells: CHO-K1
T3 sequence (Q96FL8 1-570): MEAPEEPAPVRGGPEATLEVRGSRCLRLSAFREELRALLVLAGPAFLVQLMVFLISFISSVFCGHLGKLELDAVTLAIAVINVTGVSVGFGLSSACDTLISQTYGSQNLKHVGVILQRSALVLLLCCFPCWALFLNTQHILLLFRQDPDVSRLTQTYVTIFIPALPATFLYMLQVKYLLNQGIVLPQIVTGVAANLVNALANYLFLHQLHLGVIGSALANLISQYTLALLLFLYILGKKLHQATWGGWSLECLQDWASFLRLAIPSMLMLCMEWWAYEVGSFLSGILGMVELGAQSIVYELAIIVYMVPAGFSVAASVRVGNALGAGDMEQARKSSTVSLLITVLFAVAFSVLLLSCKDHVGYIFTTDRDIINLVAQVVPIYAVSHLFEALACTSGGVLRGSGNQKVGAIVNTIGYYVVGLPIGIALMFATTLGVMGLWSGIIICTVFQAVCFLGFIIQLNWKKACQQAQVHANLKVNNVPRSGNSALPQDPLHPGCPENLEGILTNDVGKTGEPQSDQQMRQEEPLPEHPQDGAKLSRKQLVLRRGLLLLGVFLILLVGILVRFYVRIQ

CYP2C19 = CYP2C19 (Homo sapiens, UniProt P33261); test: Reversible CYP inhibition in pooled human liver microsomes; assay type: in vitro ADME
[2] = Distribution between red blood cells and plasma in human blood; assay type: in vitro ADME
[3] = Renal clearance after 1 mg/kg intravenous, monkey; assay type: in vivo, rhesus monkeys; conditions: rhesus monkey, 1 mg/kg intravenously
CYP3A4 = CYP3A4 (Homo sapiens, UniProt P08684); test: Time-dependent CYP inhibition in pooled human liver microsomes; assay type: in vitro ADME
[4] = cited from earlier work
OAT1 = biological target: T4, OAT1 (Homo sapiens, UniProt Q4U2R8); test: Islatravir uptake as substrate, MDCKII vs MDCKII-OAT1 cells; assay type: in vitro ADME
T4 construct: expressed in transfected cells; host or cells: MDCKII
T4 sequence (Q4U2R8 1-563): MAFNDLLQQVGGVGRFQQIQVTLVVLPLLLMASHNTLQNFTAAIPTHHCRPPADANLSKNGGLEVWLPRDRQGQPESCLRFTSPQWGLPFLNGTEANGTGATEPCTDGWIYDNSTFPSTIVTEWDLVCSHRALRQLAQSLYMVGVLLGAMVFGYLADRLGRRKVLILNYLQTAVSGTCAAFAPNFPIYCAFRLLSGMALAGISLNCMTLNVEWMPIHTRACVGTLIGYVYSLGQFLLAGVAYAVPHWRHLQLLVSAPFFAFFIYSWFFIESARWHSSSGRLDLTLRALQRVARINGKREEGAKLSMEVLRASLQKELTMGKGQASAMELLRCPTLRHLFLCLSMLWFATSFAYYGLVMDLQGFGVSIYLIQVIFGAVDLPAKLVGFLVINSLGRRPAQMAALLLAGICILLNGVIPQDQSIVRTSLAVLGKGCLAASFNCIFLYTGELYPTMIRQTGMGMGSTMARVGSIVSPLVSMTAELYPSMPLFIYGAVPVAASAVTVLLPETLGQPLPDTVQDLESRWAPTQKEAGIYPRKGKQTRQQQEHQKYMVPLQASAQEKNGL

[5] = Renal clearance after 1 mg/kg intravenous, rat; assay type: in vivo, male Wistar-Hannover rats; conditions: 1 mg/kg intravenously

CYP3A4, sequence (P08684 whole entry): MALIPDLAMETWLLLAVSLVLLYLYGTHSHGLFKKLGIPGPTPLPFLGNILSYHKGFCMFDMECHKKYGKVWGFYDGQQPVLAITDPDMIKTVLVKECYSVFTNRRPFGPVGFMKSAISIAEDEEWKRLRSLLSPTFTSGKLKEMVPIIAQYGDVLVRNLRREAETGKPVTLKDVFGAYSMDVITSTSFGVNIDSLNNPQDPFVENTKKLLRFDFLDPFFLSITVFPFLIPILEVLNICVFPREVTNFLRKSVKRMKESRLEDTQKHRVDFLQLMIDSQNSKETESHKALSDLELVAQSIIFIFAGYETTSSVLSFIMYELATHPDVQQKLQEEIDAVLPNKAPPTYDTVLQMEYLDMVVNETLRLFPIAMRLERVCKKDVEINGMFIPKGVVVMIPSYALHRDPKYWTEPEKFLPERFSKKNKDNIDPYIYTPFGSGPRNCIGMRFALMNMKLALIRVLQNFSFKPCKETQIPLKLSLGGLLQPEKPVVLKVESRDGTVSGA
T1 sequence (Q86VL8 1-566 isoform Q86VL8-3): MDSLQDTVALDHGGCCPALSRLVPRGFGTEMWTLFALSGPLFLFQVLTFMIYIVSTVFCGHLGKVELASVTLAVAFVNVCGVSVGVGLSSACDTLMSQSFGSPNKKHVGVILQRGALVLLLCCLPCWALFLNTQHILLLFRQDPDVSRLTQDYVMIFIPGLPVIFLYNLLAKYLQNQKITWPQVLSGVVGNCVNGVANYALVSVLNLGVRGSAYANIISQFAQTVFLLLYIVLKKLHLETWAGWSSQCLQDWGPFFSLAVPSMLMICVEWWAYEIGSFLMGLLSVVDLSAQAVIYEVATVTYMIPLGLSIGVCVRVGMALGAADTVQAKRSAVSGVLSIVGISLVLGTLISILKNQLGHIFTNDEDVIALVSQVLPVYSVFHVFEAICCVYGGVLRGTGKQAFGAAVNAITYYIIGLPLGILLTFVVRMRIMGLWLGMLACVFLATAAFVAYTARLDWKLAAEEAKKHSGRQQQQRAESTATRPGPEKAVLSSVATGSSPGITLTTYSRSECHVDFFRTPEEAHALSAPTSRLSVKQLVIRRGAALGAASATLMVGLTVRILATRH
CYP2C19, sequence (P33261 whole entry): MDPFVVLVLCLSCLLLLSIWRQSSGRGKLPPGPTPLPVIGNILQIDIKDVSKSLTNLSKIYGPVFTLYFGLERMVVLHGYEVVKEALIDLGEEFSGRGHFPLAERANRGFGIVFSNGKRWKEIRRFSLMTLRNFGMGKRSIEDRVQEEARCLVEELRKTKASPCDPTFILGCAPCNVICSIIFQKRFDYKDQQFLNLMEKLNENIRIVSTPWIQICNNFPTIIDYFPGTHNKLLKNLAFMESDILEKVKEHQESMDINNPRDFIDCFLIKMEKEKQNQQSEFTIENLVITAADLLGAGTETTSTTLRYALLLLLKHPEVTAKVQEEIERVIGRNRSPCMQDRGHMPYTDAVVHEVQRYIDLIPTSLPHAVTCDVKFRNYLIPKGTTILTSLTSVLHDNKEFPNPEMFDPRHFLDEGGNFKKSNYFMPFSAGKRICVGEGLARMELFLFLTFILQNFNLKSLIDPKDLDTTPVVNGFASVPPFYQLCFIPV
CYP2C9, sequence (P11712 whole entry): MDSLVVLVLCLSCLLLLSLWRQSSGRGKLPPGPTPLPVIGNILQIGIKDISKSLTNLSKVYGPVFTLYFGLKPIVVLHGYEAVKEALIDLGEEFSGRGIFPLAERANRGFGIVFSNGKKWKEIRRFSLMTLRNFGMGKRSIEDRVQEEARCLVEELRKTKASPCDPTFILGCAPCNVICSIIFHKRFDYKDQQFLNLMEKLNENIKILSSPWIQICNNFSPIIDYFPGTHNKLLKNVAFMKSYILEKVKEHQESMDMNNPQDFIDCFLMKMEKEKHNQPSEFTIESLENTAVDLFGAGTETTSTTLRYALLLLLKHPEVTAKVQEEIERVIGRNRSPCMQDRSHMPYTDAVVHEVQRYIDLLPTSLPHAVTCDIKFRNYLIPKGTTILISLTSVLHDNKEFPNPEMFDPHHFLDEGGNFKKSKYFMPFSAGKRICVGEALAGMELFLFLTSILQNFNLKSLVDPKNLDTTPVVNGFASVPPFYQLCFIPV

In the case of `C#C[C@]1(CO)O[C@@H](n2cnc3c(N)nc(F)nc32)C[C@@H]1O` [Islatravir, 4′-Ethynyl-2-fluoro-2′-deoxyadenosine], the fraction unbound at 24 h, 0.1 µM [1] is reported as > 0.84, the “Islatravir Uptake Control Cells” value (MATE2K; MATE2K row, MDCKII control cells, 2 µM [14C]islatravir, 20 min, mean ± SD, n = 3) is reported as 3.12 ± 0.17 pmole/10^6 Cells and the Conclusions (MATE2K; MATE2K substrate assessment) is reported as “Non-substrate”. For the same molecule, the Fold-Difference (MATE2K; MATE2K, uptake into transporter-expressing cells to control cells, 20 min) was 1.14, the “Islatravir Uptake Transporter-Expressing Cells” value (MATE2K; MDCKII-MATE2K, 2 µM [14C]islatravir, 20 min, mean ± SD, n = 3) was 3.56 ± 0.17 pmole/10^6 Cells and the time-dependent inhibition (CYP2C9; CYP2C9, pre-incubation of 10 and 50 µM for up to 30 min) was “no time-dependent inhibition”. The “DDI Potential” value (CYP2C9; CYP2C9 time dependent inhibition) was “Low risk ^h”, the IC50 (CYP2C9; time dependent, CYP2C9, read-out: Islatravir IC50) was > 50 µM and the “Islatravir Uptake Transporter-Expressing Cells” value (OAT3; MDCKII-OAT3, 1 µM [3H]islatravir, 5 min, mean ± SD, n = 3) was 0.85 ± 0.06 pmole/10^6 Cells. For the same molecule, the Fold-Difference (OAT3; OAT3, uptake into transporter-expressing cells to control cells, 5 min) was 1.23, the “Islatravir Uptake Control Cells” value (OAT3; OAT3 row, MDCKII control cells, 1 µM [3H]islatravir, 5 min, mean ± SD, n = 3) was 0.69 ± 0.07 pmole/10^6 Cells and the Conclusions (OAT3; OAT3 substrate assessment) was “Non-substrate”. For the same molecule, the IC50 (MATE1; MATE1, metformin uptake, read-out: Islatravir IC50) was > 75 µM, the “Maximum Unbound Plasma Concentration (Imax,u) to IC50 Ratio” value (MATE1; MATE1, 60 mg, Cmax 1.01 µM, fu,p 0.96) was <0.013 µM and the “DDI Potential” value (MATE1; MATE1 inhibition, FDA, EMA, PMDA guidance) was “Low risk”. The “DDI Potential” value (CYP2C19; CYP2C19 reversible inhibition, FDA, EMA, PMDA guidance) was “Low risk”, the “Maximum Unbound Plasma Concentration (Imax,u) to Ki,u Ratio” value (CYP2C19; CYP2C19 reversible, 60 mg, Cmax 1.01 µM, fu,p 0.96, Ki,u = IC50/2) was <0.019 µM and the IC50 (CYP2C19; reversible, CYP2C19 S-mephenytoin 4′-hydroxylation, read-out: Islatravir IC50) was > 100 µM. For the same molecule, the “concentration dependence of blood:plasma partitioning” value ([2]; 0.01 to 10 µM) was “did not exhibit concentration-dependent partitioning”, the blood plasma ratio at 60 min, 0.1 µM ([2]; whole blood, human blood, 0.1 µM, ± standard error, read-out: mean blood:plasma concentration ratio) was 1.3 and the CL renal ([3]; plasma and urine, iv, urine 0-24 h) was 8.7 mL/min/kg. The “Renal Excretion (% Total Plasma Clearance)” value [3] was 51%, the time-dependent inhibition (CYP3A4; CYP3A4, pre-incubation of 10 and 50 µM for up to 30 min) was “no time-dependent inhibition” and the “DDI Potential” value (CYP3A4; CYP3A4 time dependent inhibition) was “Low risk ^h”. The IC50 (CYP3A4; time dependent, CYP3A4, read-out: Islatravir IC50) was > 50 µM, the “drug-drug interaction, PK” value ([4]; co-administered with doravirine) was “no clinically meaningful effects on the PK of either drug” and the drug-drug interaction ([4]; co-administration with levonorgestrel/ethinyl estradiol) was “No significant drug–drug interactions”. The “drug-drug interaction, PK” value ([4]; with tenofovir disoproxil fumarate and dolutegravir) was “no meaningful drug–drug interactions”, the “Islatravir Uptake Transporter-Expressing Cells” value (OAT1; MDCKII-OAT1, 1 µM [3H]islatravir, 5 min, mean ± SD, n = 3) was 0.72 ± 0.04 pmole/10^6 Cells and the Fold-Difference (OAT1; OAT1, uptake into transporter-expressing cells to control cells, 5 min) was 1.04. The “Islatravir Uptake Control Cells” value (OAT1; OAT1 row, MDCKII control cells, 1 µM [3H]islatravir, 5 min, mean ± SD, n = 3) was 0.69 ± 0.07 pmole/10^6 Cells, the Conclusions (OAT1; OAT1 substrate assessment) was “Non-substrate” and the “Renal Excretion (% Total Plasma Clearance)” value [5] was 17%. The CL renal ([5]; male, Wistar-Hannover, plasma and urine, iv, urine 0-24 h) was 11.5 mL/min/kg.
